In US20130040944A1, “MGLUR4 ALLOSTERIC POTENTIATORS, COMPOSITIONS, AND METHODS OF TREATING NEUROLOGICAL DYSFUNCTION” (VANDERBILT UNIVERSITY, priority 2009, published 2013):

Biological target: human mGluR4 (Homo sapiens, UniProt Q14833)
Assay: potentiation of human mGluR4 in transfected CHO cells, Ca2+-sensitive dye fluorescence, EC20 agonist

human mGluR4, sequence (Q14833 33-912): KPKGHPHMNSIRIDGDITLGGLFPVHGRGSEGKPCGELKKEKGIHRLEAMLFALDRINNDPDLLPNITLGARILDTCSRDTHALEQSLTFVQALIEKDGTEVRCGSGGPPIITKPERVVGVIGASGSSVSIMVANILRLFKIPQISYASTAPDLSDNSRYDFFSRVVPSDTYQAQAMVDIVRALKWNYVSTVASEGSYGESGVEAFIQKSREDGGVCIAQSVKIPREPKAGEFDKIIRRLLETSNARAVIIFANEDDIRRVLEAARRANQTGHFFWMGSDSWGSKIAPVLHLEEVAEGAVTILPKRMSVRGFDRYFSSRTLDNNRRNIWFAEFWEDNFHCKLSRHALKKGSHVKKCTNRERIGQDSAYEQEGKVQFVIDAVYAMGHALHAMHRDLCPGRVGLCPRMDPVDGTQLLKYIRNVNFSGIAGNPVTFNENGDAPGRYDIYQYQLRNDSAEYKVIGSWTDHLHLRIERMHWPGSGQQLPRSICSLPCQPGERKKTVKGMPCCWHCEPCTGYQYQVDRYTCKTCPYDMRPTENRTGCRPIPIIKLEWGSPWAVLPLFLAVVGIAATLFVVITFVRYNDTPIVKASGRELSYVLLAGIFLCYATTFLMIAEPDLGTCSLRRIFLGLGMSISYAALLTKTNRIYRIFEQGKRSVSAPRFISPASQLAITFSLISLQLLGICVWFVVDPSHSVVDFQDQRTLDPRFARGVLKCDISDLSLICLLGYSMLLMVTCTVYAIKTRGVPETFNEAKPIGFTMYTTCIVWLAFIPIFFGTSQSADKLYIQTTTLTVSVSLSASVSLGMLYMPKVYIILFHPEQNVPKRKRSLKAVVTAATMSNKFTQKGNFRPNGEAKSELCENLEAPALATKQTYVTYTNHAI

O=C(Nc1ccn(S(=O)(=O)c2ccccc2)c1)c1ccccc1 [Example 5, N-(1-(phenylsulfonyl)-1H-pyrrol-3-yl)benzamide]
Emax (CHO, read-out: % Glu Max): 93%
EC50 (EC50 (nM), potentiation of EC20 agonist response, Table I): 8170 nM
